As usually defined, the EC50 is the midpoint of the concentration-response curve. The low end stands for higher potency in that assay, the high end for lower potency in that assay.

These results are taken from patent US10730863B2, “Bridged bicyclic compounds as farnesoid X receptor modulators” (BRISTOL-MYERS SQUIBB COMPANY, priority 2017, dated 2020).

SMILES strings stand for the structures.

The test deals with FXR (Homo sapiens (Human), UniProt Q96RI1). Briefly: transient human FXR/Gal4-luciferase reporter assay. The note with it: Gal4-hFXR LBD fusion in HEK293 reporter cells; relative to 8 μM GW-4064. In kind it is cell-based. As to the method: The exemplified compounds of the present invention were tested in the transient human FXR/Gal4-luciferase reporter assay, and assay results were described in the EXAMPLES section hereinbefore.
Sequence of FXR (Q96RI1 262-486): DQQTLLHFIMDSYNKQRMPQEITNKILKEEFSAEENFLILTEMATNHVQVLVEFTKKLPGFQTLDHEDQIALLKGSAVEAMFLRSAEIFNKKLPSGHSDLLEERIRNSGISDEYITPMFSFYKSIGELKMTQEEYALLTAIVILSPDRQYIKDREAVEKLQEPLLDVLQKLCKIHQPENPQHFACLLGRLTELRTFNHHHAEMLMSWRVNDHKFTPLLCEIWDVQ
A Gal4-hFXR fusion construct reporter system was used as the primary assay to characterize compound activity. A construct including 5 copies of the Gal4 promoter response element upstream of a firefly luciferase reporter cDNA was stably expressed in HEK293 cells. This reporter cell line was maintained in Dulbecco's Modified Eagle's medium (DMEM; Gibco) supplemented with 1% penicillin-streptomycin (P/S) solution, 500 μg/ml Zeocin and 10% charcoal/dextran-treated fetal bovine serum (cs-FBS) at 37° C. in a humidified 5% CO2 atmosphere. Another plasmid was constructed in which the human cytomegalovirus promoter in the pcDNA3.1 vector directs the expression of the cDNA encoding a fusion protein comprised of the DNA binding domain from the Gal4 transcription factor fused to the ligand binding domain from human FXR.
The day prior to transfection, the reporter cells in culture are detached from the plate with trypsin and plated into a T75 flask at a sufficient density to achieve approximately 90% confluence the next morning. The transfection reagents are prepared by separately diluting 25 μg of the pcDNA3.1-Gal4-FXR plasmid into 1.87 mL of Opti-MEM (Thermo-Fisher), and 40 μL of Lipofectamine 2000 (Thermo-Fisher) into 1.87 mL of Opti-MEM, and then adding the diluted DNA solution into the diluted Lipofectamine 2000 solution and incubating at room temperature for 15-20 minutes. The mixture is further diluted with 10 mL of a solution comprised of DMEM, 10% cs-FBS, and 1% P/S immediately prior to transferring to the cells. The maintenance culture media is aspirated from the cells and the final transfection mixture is added before the cells are incubated overnight at 37° C. in a humidified 5% CO2 atmosphere. This protocol can be scaled up, and the transiently transfected cells can be cryopreserved in an assay-ready format.
For compound testing, 100 nL of the compounds (serial dilutions in DMSO) are dispensed with an Echo acoustic dispenser (Labcyte) into the wells of a Corning/Costar clear bottom 384-well white plate. The transfected cells are harvested, counted, and diluted such that 10-25,000 cells in 25 μL are plated into each well of the 384-well compound assay plate. The compound-treated cells are incubated overnight at 37° C. in a humidified 5% CO2 atmosphere. The next morning 25 μL of Steady-Glo (Promega) are added to each well of the plate, the mixture is incubated for 15 min. with shaking, and luminescence is measured on an Envision (Perkin Elmer) plate reader. Background counts from cells treated with DMSO alone are subtracted from all raw counts, and the corrected values are converted to a percentage of the control response attained with 8 μM GW-4064.
In turn, `CCc1cc(OCC23CCC(OCc4c(-c5c(Cl)cncc5Cl)noc4C4CC4)(CC2)CC3)nn1CC(=O)O` [Example 524] gave an EC50 of 1500 nM. Next, `O=C(O)c1cnc2ccc(/C=C/C34CCC(OCc5c(-c6c(Cl)cncc6Cl)noc5C5CC5)(CC3)CC4)cn12` [Example 593]: 1130 nM. `CNC(=O)Cc1ccc(/C=C/C23CCC(OCc4c(-c5c(Cl)cncc5Cl)noc4C4CC4)(CC2)CC3)cc1` [Example 618]: it took 393 nM to reach a half-maximal effect (EC50). `Cn1c(C(=O)O)cc2c(/C=C/C34CCC(OCc5c(-c6c(Cl)cncc6Cl)noc5C5CC5)(CC3)CC4)cccc21` [Example 597] displayed a concentration for a half-maximal effect (EC50) of 208 nM. Molecule `CC(C)Oc1cc(C(=O)O)nc2ccc(CCC34CCC(OCc5c(-c6c(Cl)cncc6Cl)noc5C5CC5)(CC3)CC4)cc12` [Example 586] came in with an EC50 of 30 nM. In turn, `O=C(O)c1cnc2cc(/C=C/C34CCC(OCc5c(-c6c(Cl)cncc6Cl)noc5C5CC5)(CC3)CC4)ccn12` [Example 592] returned an EC50 of 194 nM. With `O=C(O)c1cc2ccc(/C=C/C34CCC(OCc5c(-c6c(Cl)cncc6Cl)noc5C5CC5)(CC3)CC4)cc2c(Cl)n1` [Example 599] the figure was 15 nM; with `O=C(O)Cc1ccc(/C=C/C23CCC(OCc4c(-c5c(Cl)cncc5Cl)noc4C4CC4)(CC2)CC3)cc1` [Example 587], 173 nM; with `O=C(O)c1cc(OCC23CCC(OCc4c(-c5c(Cl)cncc5Cl)noc4C4CC4)(CC2)CC3)nn1CC1CC1` [Example 528], 16 nM. Next, `COc1ncc(C(=O)O)cc1C#CC12CCC(OCc3c(-c4c(Cl)cncc4Cl)noc3C3CC3)(CC1)CC2` [Example 563]: 16 nM; `O=C(O)c1cc(OC2CCCC2)c2cc(/C=C/C34CCC(OCc5c(-c6c(Cl)cncc6Cl)noc5C5CC5)(CC3)CC4)ccc2n1` [Example 589]: 17 nM. With `O=C(O)c1cc2ccc(C#CC34CCC(OCc5c(-c6c(Cl)cncc6Cl)noc5C5CC5)(CC3)CC4)cc2c(N2CCNCC2)n1` [Example 573] the figure was 1630 nM. As to `COC1CN(c2nc(C(=O)O)cc3ccc(/C=C/C45CCC(OCc6c(-c7c(Cl)cncc7Cl)noc6C6CC6)(CC4)CC5)cc23)C1` [Example 609], the EC50 was 67 nM. This EC50 lies about 24-fold lower than the previous one. With `O=C(O)Cc1ccc(/C=C/C23CCC(OCc4c(-c5c(Cl)cncc5Cl)noc4C4CC4)(CC2)CC3)cc1F` [Example 594] the figure was 153 nM.

In turn, `Clc1cncc(Cl)c1-c1noc(C2CC2)c1COC12CCC(/C=C/c3ccc(Cc4nn[nH]n4)cc3)(CC1)CC2` [Example 619] came in with an EC50 of 213 nM. This EC50 and that of the molecule before are within 1.5-fold of each other. Next, `COc1ccc(/C=C/C23CCC(OCc4c(-c5c(Cl)cncc5Cl)noc4C4CC4)(CC2)CC3)cc1CCC(=O)O` [Example 605]: 432 nM. With `O=C(O)c1cnc(C#CC23CCC(OCc4c(-c5c(Cl)cncc5Cl)noc4C4CC4)(CC2)CC3)cn1` [Example 542] the figure was 4880 nM; with `O=C(O)CCc1cccc(/C=C/C23CCC(OCc4c(-c5c(Cl)cncc5Cl)noc4C4CC4)(CC2)CC3)c1` [Example 623], 843 nM. Consider `O=C(O)c1cc2ccc(/C=C/C34CCC(OCc5c(-c6c(Cl)cncc6Cl)noc5C5CC5)(CC3)CC4)cc2c(OC2CC2)n1` [Example 614], for which the response was half-maximal at 51 nM (EC50). This EC50 lies about 17-fold lower than the previous one.

`CCn1nc(OCC23CCC(OCc4c(-c5c(Cl)cncc5Cl)noc4C4CC4)(CC2)CC3)c(C)c1C(=O)O` [Example 530] yielded an EC50 of 219 nM. Next, `O=C(O)c1cc2ccc(/C=C/C34CCC(OCc5c(-c6c(Cl)cncc6Cl)noc5C5CC5)(CC3)CC4)cc2c(OC2CCCC2)n1` [Example 615]: 52 nM. With `O=C(O)COCc1ccc(C#CC23CCC(OCc4c(-c5c(Cl)cncc5Cl)noc4C4CC4)(CC2)CC3)cc1` [Example 566] the figure was 194 nM; with `O=C(O)c1cc(OCC23CCC(OCc4c(-c5c(Cl)cncc5Cl)noc4C4CC4)(CC2)CC3)nn1C1CC1` [Example 539], 25 nM. With `O=C(O)c1ccc(NCC23CCC(OCc4c(-c5c(Cl)cccc5Cl)noc4C4CC4)(CC2)CC3)nc1` [Example 579] the figure was 70 nM; with `COCCCOc1cc(C(=O)O)cc2ccc(C34CCC(OCc5c(-c6c(Cl)cncc6Cl)noc5C5CC5)(CC3)CC4)nc12` [Example 556], 30 nM; with `Cc1c(OCC23CCC(OCc4c(-c5c(Cl)cncc5Cl)noc4C4CC4)(CC2)CC3)nn(C)c1C(=O)O` [Example 534], 248 nM. The molecule `O=C(O)c1cc2ccc(C#CC34CCC(OCc5c(-c6c(Cl)cncc6Cl)noc5C5CC5)(CC3)CC4)cc2c(N2CCC2)n1` [Example 559] showed an EC50 of 20 nM. Compared with the last molecule, the EC50 is about 12-fold lower. With `CCc1cc(C(=O)O)c2ncc(C#CC34CCC(OCc5c(-c6c(Cl)cncc6Cl)noc5C5CC5)(CC3)CC4)n2c1` [Example 546] the figure was 7 nM; with `O=C(O)c1cc2ccc(C#CC34CCC(OCc5c(-c6c(Cl)cncc6Cl)noc5C5CC5)(CC3)CC4)cc2c(OCCN2CCCC2)n1` [Example 574], 1370 nM.

As to `CC(F)(F)c1cc(OCC23CCC(OCc4c(-c5c(Cl)cncc5Cl)noc4C4CC4)(CC2)CC3)cnc1C(=O)O` [Example 536], a half-maximal response (EC50) required 55 nM. Next, `Cc1c(OCC23CCC(OCc4c(-c5c(Cl)cncc5Cl)noc4C4CC4)(CC2)CC3)nn(CC2CC2)c1C(=O)O` [Example 532]: 148 nM; `O=C(O)CCc1ccc(C#CC23CCC(OCc4c(-c5c(Cl)cncc5Cl)noc4C4CC4)(CC2)CC3)cc1` [Example 564]: 175 nM. For the molecule `O=C(O)c1cc2ccc(C#CC34CCC(OCc5c(-c6c(Cl)cncc6Cl)noc5C5CC5)(CC3)CC4)cc2c(N2CCC(O)CC2)n1` [Example 558], the EC50 was determined as 20 nM. With `O=C(O)c1cc2ccc(/C=C/C34CCC(OCc5c(-c6c(Cl)cncc6Cl)noc5C5CC5)(CC3)CC4)cc2c(N2CC(O)C2)n1` [Example 610] the figure was 77 nM; with `Cn1c(C(=O)O)cc2ccc(/C=C/C34CCC(OCc5c(-c6c(Cl)cncc6Cl)noc5C5CC5)(CC3)CC4)cc21` [Example 595], 49 nM.

`CN1CCN(c2nc(C(=O)O)cc3cc(C#CC45CCC(OCc6c(-c7c(Cl)cncc7Cl)noc6C6CC6)(CC4)CC5)ccc23)CC1` [Example 570] registered an EC50 of 201 nM. Next, `O=C(O)c1cc(OCC23CCC(OCc4c(-c5c(Cl)cncc5Cl)noc4C4CC4)(CC2)CC3)n(C2CC2)n1` [Example 541]: 59 nM; `O=C(O)c1cc(N2CCOCC2)c2nc(C34CCC(OCc5c(-c6c(Cl)cncc6Cl)noc5C5CC5)(CC3)CC4)ccc2c1` [Example 543]: 469 nM; `O=C(O)COc1ccc(/C=C/C23CCC(OCc4c(-c5c(Cl)cncc5Cl)noc4C4CC4)(CC2)CC3)cn1` [Example 616]: 3040 nM. With `O=C(O)c1cc2ccc(C#CC34CCC(OCc5c(-c6c(Cl)cncc6Cl)noc5C5CC5)(CC3)CC4)cc2c(N2CC(O)C2)n1` [Example 552] the figure was 100 nM. Next, `CN(C)C(=O)Cc1ccc(/C=C/C23CCC(OCc4c(-c5c(Cl)cncc5Cl)noc4C4CC4)(CC2)CC3)cc1` [Example 620]: 382 nM. For `Cn1nc(C(=O)O)cc1OCC12CCC(OCc3c(-c4c(Cl)cncc4Cl)noc3C3CC3)(CC1)CC2` [Example 526], a half-maximal effect (EC50) was put at 296 nM. The EC50 values of the last two molecules are within 1.5-fold of each other. On to `O=C(O)c1ccc2cc(/C=C/C34CCC(OCc5c(-c6c(Cl)cncc6Cl)noc5C5CC5)(CC3)CC4)ccc2n1` [Example 588], for which the EC50 was 88 nM. Turning to `O=C(O)CCc1cc(/C=C/C23CCC(OCc4c(-c5c(Cl)cncc5Cl)noc4C4CC4)(CC2)CC3)ccc1OCC(F)F` [Example 624], the EC50 was determined as 438 nM. Regarding `O=C(O)CCc1ccc(/C=C/C23CCC(OCc4c(-c5c(Cl)cncc5Cl)noc4C4CC4)(CC2)CC3)cc1` [Example 606], the EC50 was found to be 160 nM. Next, `O=C(O)c1cc2ccc(/C=C/C34CCC(OCc5c(-c6c(Cl)cncc6Cl)noc5C5CC5)(CC3)CC4)cc2c(OC2CCC2)n1` [Example 613]: 298 nM; `O=C(O)c1cc(OC2COC2)c2nc(C34CCC(OCc5c(-c6c(Cl)cncc6Cl)noc5C5CC5)(CC3)CC4)ccc2c1` [Example 544]: 118 nM. Next, `O=C(O)c1cc2ccc(/C=C/C34CCC(OCc5c(-c6c(Cl)cncc6Cl)noc5C5CC5)(CC3)CC4)cc2c(N2CC(F)C2)n1` [Example 611]: 22 nM; `O=C(O)c1cncc(NCC23CCC(OCc4c(-c5c(Cl)cccc5Cl)noc4C4CC4)(CC2)CC3)c1` [Example 580]: 543 nM.
